According to ChEMBL document CHEMBL1133394, “Novel C-ring analogues of 20(S)-camptothecin. Part 3: synthesis and their in vitro cytotoxicity of A-, B- and C-ring analogues” (Bioorg Med Chem Lett, 2000):

Experiments:
ACHN [1] = assay: The compound was tested in vitro for cytotoxicity against human tumor cell line ACHN (renal).; type: functional
OVCAR-8 = assay: Tested in vitro for cytotoxicity against human tumor cell line OVCAR8 (ovarian).; type: functional
SF-268 = assay: Tested in vitro for cytotoxicity against human tumor cell line SF-268 (CNS).; type: functional
UACC-62 = assay: Tested in vitro for cytotoxicity against human tumor cell line UACC 62 (melanoma); type: functional
HOP-62 = assay: Tested in vitro for cytotoxicity against human tumor cell line HOP62 (lung); type: functional
DU-145 [2] = assay: The compound was tested in vitro for cytotoxicity against human tumor cell line DU-145 (prostate); type: functional
ACHN [3] = assay: Tested in vitro for cytotoxicity against human tumor cell line ACHN (renal).; type: functional
DU-145 [4] = assay: Tested in vitro for cytotoxicity against human tumor cell line DU-145 (prostate); type: functional
NCI/ADR-RES = assay: Tested in vitro for cytotoxicity against human tumor cell line MCF-7/ADR (breast); type: functional
[5] = system: Panel (56 tumour cell lines); assay: Tested in vitro for cytotoxicity against 56 human tumor cell lines; type: functional, cell-based
Mus musculus [6] = assay: The compound (134 mg/kg) administered intravenously was tested for antitumor activity against A-498 (renal) xenograft model in mice; type: functional
Mus musculus [7] = assay: The compound (134 mg/kg) administered intravenously was tested for antitumor activity against DU-145 (prostate) xenograft model in mice; type: functional, Prostate gland
Mus musculus [8] = assay: The compound (200 mg/kg) administered intravenously was tested for antitumor activity against A-498 (renal) xenograft model in mice; type: functional
Mus musculus [9] = assay: The compound (200 mg/kg) administered intravenously was tested for antitumor activity against DU-145 (prostate) xenograft model in mice; type: functional, Prostate gland
Mus musculus [10] = assay: The compound (90 mg/kg) administered intravenously was tested for antitumor activity against A-498 (renal) xenograft model in mice; type: functional
Mus musculus [11] = assay: The compound (90 mg/kg) administered intravenously was tested for antitumor activity against DU-145 (prostate) xenograft model in mice; type: functional, Prostate gland
NCI-H23 [12] = assay: (§1) The compound (134 mg/kg) administered intravenously was tested for antitumor activity against NCI-H23 (lung) xenograft model in mice; type: functional, Mus musculus
NCI-H23 [13] = assay: (§2) The compound (200 mg/kg) administered intravenously was tested for antitumor activity against NCI-H23 (lung) xenograft model in mice; type: functional, Mus musculus
NCI-H23 [14] = assay: (§3) The compound (90 mg/kg) administered intravenously was tested for antitumor activity against NCI-H23 (lung) xenograft model in mice; type: functional, Mus musculus
Mus musculus [15] = assay: as §1; type: functional
Mus musculus [16] = assay: as §2; type: functional
Mus musculus [17] = assay: as §3; type: functional
Mus musculus [18] = assay: The compound (10 mg/kg) administered intravenously was tested for antitumor activity against DU-145 (prostate) xenograft model in mice; type: functional, Prostate gland
Mus musculus [19] = assay: The compound (2.5 mg/kg) administered intravenously was tested for antitumor activity against A-498 (renal) xenograft model in mice; type: functional
Mus musculus [20] = assay: The compound (2.5 mg/kg) administered intravenously was tested for antitumor activity against DU-145 (prostate) xenograft model in mice; type: functional, Prostate gland
Mus musculus [21] = assay: The compound (5 mg/kg) administered intravenously was tested for antitumor activity against A-498 (renal) xenograft model in mice; type: functional
Mus musculus [22] = assay: The compound (5 mg/kg) administered intravenously was tested for antitumor activity against DU-145 (prostate) xenograft model in mice; type: functional, Prostate gland
Mus musculus [23] = assay: The compound (10 mg/kg) administered intravenously was tested for antitumor activity against A-498 (renal) xenograft model in mice; type: functional
NCI-H23 [24] = assay: The compound (10 mg/kg) administered intravenously was tested for antitumor activity against NCI-H23 (lung) xenograft model in mice; type: functional, Mus musculus
NCI-H23 [25] = assay: The compound (2.5 mg/kg) administered intravenously was tested for antitumor activity against NCI-H23 (lung) xenograft model in mice; type: functional, Mus musculus
NCI-H23 [26] = assay: The compound (5 mg/kg) administered intravenously was tested for antitumor activity against NCI-H23 (lung) xenograft model in mice; type: functional, Mus musculus

Compound | GI50 (OVCAR-8) | GI50 (SF-268) | GI50 (UACC-62) | GI50 (HOP-62) | GI50 (ACHN [3]) | GI50 (DU-145 [4]) | GI50 (NCI/ADR-RES) | IC50 [5] | other results
CC[C@@]1(O)C(=O)OCc2c1cc1n(c2=O)C(OCCOC)c2cc3c([N+](=O)[O-])cccc3nc2-1 (stereo partly specified) | 970 nM | 1000 nM | 470 nM | 400 nM |  |  |  |  | GI50 (ACHN [1]): 430 nM; GI50 (DU-145 [2]): 440 nM
CCc1c2c(nc3cccc(OC)c13)-c1cc3c(c(=O)n1C2OCC(F)(F)F)COC(=O)[C@]3(O)CC (stereo partly specified) | 2630 nM | 2130 nM | 4680 nM | 1580 nM | 2830 nM | 3900 nM | 1840 nM |  | 
CCOC1c2cc3c([N+](=O)[O-])cccc3nc2-c2cc3c(c(=O)n21)COC(=O)[C@]3(O)CC (stereo partly specified) |  |  |  |  |  |  |  | 27500 nM | 
CCc1c2c(nc3ccc(O)cc13)-c1cc3c(c(=O)n1C2OCCOC)COC(=O)[C@]3(O)CC (stereo partly specified) | 100 nM | > 30000 nM | 600 nM | 20000 nM | 600 nM | 550 nM | 200 nM |  | 
CC[C@@]1(O)C(=O)OCc2c1cc1n(c2=O)C(OCC(F)(F)F)c2cc3cc(O)ccc3nc2-1 (stereo partly specified) | 260 nM | 30 nM | 100 nM | 60 nM | 100 nM | 100 nM | 200 nM |  | T-C/C (Mus musculus [6]): 46%; T-C/C (Mus musculus [7]): 4%; T-C/C (Mus musculus [8]): 27%; T-C/C (Mus musculus [9]): 21%; T-C/C (Mus musculus [10]): 46%; T-C/C (Mus musculus [11]): 8%; T-C/C (NCI-H23 [12]): 58%; T-C/C (NCI-H23 [13]): 58%; T-C/C (NCI-H23 [14]): 12%
CCOC1c2cc3c(O)cccc3nc2-c2cc3c(c(=O)n21)COC(=O)[C@]3(O)CC (stereo partly specified) |  |  |  |  |  |  |  | 200 nM | T-C/C (Mus musculus [6]): 8%; T-C/C (Mus musculus [7]): 27%; T-C/C (Mus musculus [15]): 15%; T-C/C (Mus musculus [8]): 6%; T-C/C (Mus musculus [9]): 33%; T-C/C (Mus musculus [16]): 12%; T-C/C (Mus musculus [10]): 23%; T-C/C (Mus musculus [11]): 9%; T-C/C (Mus musculus [17]): 8%
CCOC1c2cc3cc(O)ccc3nc2-c2cc3c(c(=O)n21)COC(=O)[C@]3(O)CC (stereo partly specified) |  |  |  |  |  |  |  | 2880 nM | 
CCc1c2c(nc3ccc(O)cc13)-c1cc3c(c(=O)n1C2OCCF)COC(=O)[C@]3(O)CC (stereo partly specified) | 500 nM | > 30000 nM | 1000 nM | 25000 nM | 8000 nM | 1000 nM | 100 nM |  | 
CC[C@@]1(O)C(=O)OCc2c1cc1n(c2=O)C(OCCF)c2cc3c([N+](=O)[O-])cccc3nc2-1 (stereo partly specified) | 740 nM | 310 nM | 400 nM | 360 nM | 250 nM | 630 nM | 200 nM |  | 
CCOC1c2c(nc3cccc(O)c3c2CC)-c2cc3c(c(=O)n21)COC(=O)[C@]3(O)CC (stereo partly specified) |  |  |  |  |  |  |  | 4670 nM | 
CC[C@@]1(O)C(=O)OCc2c1cc1n(c2=O)Cc2cc3ccccc3nc2-1 [CAMPTOTHECIN] |  |  |  |  |  |  |  | 40 nM | 
CC[C@@]1(O)C(=O)OCc2c1cc1n(c2=O)Cc2cc3c(CN(C)C)c(O)ccc3nc2-1 [TOPOTECAN] | 200 nM | 80 nM | 30 nM | 50 nM | 40 nM | 40 nM | 70 nM | 160 nM | T-C/C (Mus musculus [18]): 339%; T-C/C (Mus musculus [19]): 11%; T-C/C (Mus musculus [20]): 83%; T-C/C (Mus musculus [21]): 67%; T-C/C (Mus musculus [22]): 35%; T-C/C (Mus musculus [23]): 47%; T-C/C (NCI-H23 [24]): 60%; T-C/C (NCI-H23 [25]): 10%; T-C/C (NCI-H23 [26]): 6%
